Data reported in ChEMBL document CHEMBL2424644, “Synthesis and antiproliferative evaluation of novel benzoimidazole-contained oxazole-bridged analogs of combretastatin A-4” (Eur J Med Chem, 2013).

How the values were obtained:
[1] = tested on: HepG2; experiment: Cytotoxicity against human HepG2 cells assessed as growth inhibition after 72 hrs by MTT assay; type: functional, cell-based; conditions: HepG2, 72 h
[2] = tested on: HT-29; experiment: Cytotoxicity against human HT-29 cells assessed as growth inhibition after 72 hrs by MTT assay; type: functional, cell-based; conditions: HT-29, 72 h
[3] = tested on: MCF7; experiment: Cytotoxicity against human MCF7 cells assessed as growth inhibition after 72 hrs by MTT assay; type: functional, cell-based; conditions: MCF7, 72 h
[4] = tested on: MX1; experiment: Cytotoxicity against taxol-resistant human MX1 cells assessed as growth inhibition after 72 hrs by MTT assay; type: functional, cell-based; conditions: MX1, 72 h
[5] = tested on: BXPC-3; experiment: Cytotoxicity against human BxPC3 cells assessed as growth inhibition after 72 hrs by MTT assay; type: functional, cell-based; conditions: BXPC-3, 72 h
[6] = tested on: KB; experiment: Cytotoxicity against vincristine-resistant human KB cells assessed as growth inhibition after 72 hrs by MTT assay; type: functional, cell-based
[7] = tested on: MX1; experiment: Cytotoxicity against human MX1 cells assessed as growth inhibition after 72 hrs by MTT assay; type: functional, cell-based; conditions: MX1, 72 h
[8] = tested on: KB; experiment: Cytotoxicity against human KB cells assessed as growth inhibition after 72 hrs by MTT assay; type: functional, cell-based
[9] = tested on: H22; experiment: Antitumor activity against mouse H22 cells allografted in KM mouse assessed as tumor growth inhibition at 0.5 mg/kg, ip administered on day 1 and 4 measured on day 8 relative to control; type: functional; conditions: route intraperitoneal, read-out: TGI
[10] = tested on: H22; experiment: Antitumor activity against mouse H22 cells allografted in KM mouse assessed as tumor growth inhibition at 0.25 mg/kg, ip administered on day 1 and 4 measured on day 8 relative to control; type: functional; conditions: route intraperitoneal, read-out: TGI
[11] = tested on: Mus musculus; experiment: Toxicity in KM mouse allografted with mouse H22 cells assessed as body weight at 0.5 mg/kg, ip administered on day 1 and 4 measured on day 8 (reference value: 30 +/- 3.24 g); type: organism-based; parameters: dose 0.5 mg/kg, route intraperitoneal; conditions: in vivo
[12] = tested on: A549; experiment: Cytotoxicity against human A549 cells assessed as growth inhibition after 72 hrs by MTT assay; type: functional, cell-based; conditions: A549, 72 h
[13] = tested on: Mus musculus; experiment: Toxicity in KM mouse allografted with mouse H22 cells assessed as body weight at 0.25 mg/kg, ip administered on day 1 and 4 measured on day 8 (reference value: 30 +/- 3.24 g); type: organism-based; parameters: dose 0.25 mg/kg, route intraperitoneal; conditions: in vivo

Structure (SMILES)	IC50 [1]	IC50 [2]	IC50 [3]	IC50 [4]	IC50 [5]	IC50 [6]	IC50 [7]	IC50 [8]	inhibition in vivo at 0.5 mg/kg [9]	inhibition in vivo at 0.25 mg/kg [10]	Activity [11]	IC50 [12]	Activity [13]
COc1cc(-c2ncoc2-c2ccc(OC)c3c2ncn3CCO)cc(OC)c1OC	250 nM	170 nM	510 nM										
COc1ccc(/C=C\c2cc(OC)c(OC)c(OC)c2)cc1O [COMBRETASTATIN A4]			220 nM	71 nM	< 50 nM	6 nM	52 nM	8 nM					
COc1cc(-c2ncoc2-c2ccc(OC)c3c2ncn3CC(N)=O)cc(OC)c1OC	990 nM	> 10000 nM	> 10000 nM										
CC[C@]1(O)C[C@H]2CN(CCc3c([nH]c4ccccc34)[C@@](C(=O)OC)(c3cc4c(cc3OC)N(C=O)[C@H]3[C@@](O)(C(=O)OC)[C@H](OC(C)=O)[C@]5(CC)C=CCN6CC[C@]43[C@@H]65)C2)C1 [VINCRISTINE]	210 nM	12 nM	13 nM	75 nM	> 500 nM	> 100000 nM	12 nM	139 nM	61%	31%	25.5 g	53 nM	24.6 g
CCOC(=O)Cn1cnc2c(OC)ccc(-c3ocnc3-c3cc(OC)c(OC)c(OC)c3)c21	500 nM	350 nM	419 nM		> 500 nM							23.4 nM	
COC(=O)c1sccc1S(=O)(=O)n1cnc2c(-c3ocnc3-c3cc(OC)c(OC)c(OC)c3)ccc(OC)c21	134 nM	163 nM	435 nM		941 nM							2510 nM	
CCOC(=O)Cn1cnc2c(-c3ocnc3-c3cc(OC)c(OC)c(OC)c3)ccc(OC)c21	> 500 nM	> 500 nM	> 500 nM		> 500 nM							> 500 nM	
COc1cc(-c2ncoc2-c2ccc(OC)c3c2ncn3C)cc(OC)c1OC	29 nM	14 nM	39 nM	12800 nM	56 nM	27 nM	334 nM	41 nM				9.6 nM	
COc1cc(-c2ncoc2-c2ccc(OC)c3ncn(CCO)c23)cc(OC)c1OC	130 nM	180 nM	540 nM										
COc1cc(-c2ncoc2-c2ccc(OC)c3ncn(CC#N)c23)cc(OC)c1OC	870 nM	1600 nM	2050 nM		1390 nM							> 5000 nM	
